Laboratory results as given in patent publication US20220119767A1, “NATURAL KILLER CELL INDUCED CELLULAR VESICLES FOR CANCER THERAPY” (The Regents of the University of California, priority 2019, published 2022).

System: K562 leukemia cancer cells
Experimental: DOX-loaded ICVs were tested for cytotoxicity to K562 cancer cells compared to free DOX, as assessed by using an MTT assay (see FIG. 5).

**Q.** Which “order of K562 cytotoxicity” value does the source give for `COc1cccc2c1C(=O)c1c(O)c3c(c(O)c1C2=O)C[C@@](O)(C(=O)CO)C[C@@H]3O[C@H]1C[C@H](N)[C@H](O)[C@H](C)O1` [DOX, doxorubicin] here?
**A.** DOX>NK92 ICVs-DOX>K562 ICVs-DOX
